From patent publication US20130190407A1, “CALCIUM RECEPTOR-ACTIVE MOLECULES” (NPS Pharmaceuticals, Inc., priority 1991, published 2013)

Assays:
Format in all cases: cell-based
calcium receptor = molecular target: T1, calcium receptor (Homo sapiens, UniProt P41180); test: Cl- current in Xenopus oocytes injected with human parathyroid cell mRNA
T1 construct: poly(A)^+-enriched mRNA from human parathyroid tissue (hyperplastic glands from a case of secondary HPT); expressed in transfected cells; host or cells: Xenopus laevis oocytes injected with poly(A)+ mRNA from hyperplastic human parathyroid glands
T1 sequence (P41180 20-1078): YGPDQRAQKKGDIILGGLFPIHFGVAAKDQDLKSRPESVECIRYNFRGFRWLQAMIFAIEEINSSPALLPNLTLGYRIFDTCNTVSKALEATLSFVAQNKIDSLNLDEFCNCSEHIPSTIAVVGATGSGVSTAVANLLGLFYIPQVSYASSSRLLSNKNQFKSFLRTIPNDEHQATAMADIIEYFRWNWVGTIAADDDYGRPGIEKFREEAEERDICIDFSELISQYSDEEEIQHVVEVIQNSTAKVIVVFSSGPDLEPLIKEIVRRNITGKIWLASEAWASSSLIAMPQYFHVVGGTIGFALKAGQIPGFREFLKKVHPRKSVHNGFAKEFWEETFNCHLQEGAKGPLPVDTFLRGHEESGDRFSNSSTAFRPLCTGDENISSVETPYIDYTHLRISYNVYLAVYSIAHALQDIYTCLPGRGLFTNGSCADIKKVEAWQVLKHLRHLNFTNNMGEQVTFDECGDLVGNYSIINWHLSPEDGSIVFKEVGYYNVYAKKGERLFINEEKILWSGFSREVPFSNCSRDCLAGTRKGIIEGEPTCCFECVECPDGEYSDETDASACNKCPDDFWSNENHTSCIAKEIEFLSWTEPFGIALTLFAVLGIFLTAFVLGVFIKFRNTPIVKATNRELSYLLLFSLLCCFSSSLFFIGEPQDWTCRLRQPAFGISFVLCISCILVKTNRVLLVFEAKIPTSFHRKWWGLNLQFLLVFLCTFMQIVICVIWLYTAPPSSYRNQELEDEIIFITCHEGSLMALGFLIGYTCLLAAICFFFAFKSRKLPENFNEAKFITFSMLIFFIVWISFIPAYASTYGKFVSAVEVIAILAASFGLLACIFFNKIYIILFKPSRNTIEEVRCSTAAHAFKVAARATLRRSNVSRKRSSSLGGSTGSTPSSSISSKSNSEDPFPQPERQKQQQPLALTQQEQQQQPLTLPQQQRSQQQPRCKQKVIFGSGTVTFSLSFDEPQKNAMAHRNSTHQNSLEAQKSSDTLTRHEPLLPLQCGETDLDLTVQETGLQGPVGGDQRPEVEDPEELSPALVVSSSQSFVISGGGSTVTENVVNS
Experimental: Oocytes were injected with poly(A)^+-enriched mRNA from human parathyroid tissue (hyperplastic glands from a case of secondary HPT).
Following incubation, an oocyte was placed into a 100-μl plastic chamber and superfused with MBS at a flow rate of 0.5 ml/min using a peristaltic pump. Test molecules or inorganic polycations were added by rapidly moving the tubing into different buffers. Recording and current-passing electrodes were constructed from thin-wall capillary tubing pulled to a resistance of 1-3 Mohms and filled with 3 M KCl. […] Currents were recorded directly onto a strip chart recorder.
Using this screen allows one to test for an action directly on the calcium receptor. Oocytes expressing the calcium receptor also responded to several molecules active on intact parathyroid cells when screened as follows. […] This offers rather compelling evidence showing that these molecules act on the calcium receptor or on some other protein intimately associated with its function.

human parathyroid cells = test: PTH secretion from human parathyroid cells; details: concentrations that mobilize intracellular Ca2+
Experimental: PTH secretion was measured by first suspending cells in PCB containing 0.5 mM CaCl2 and 0.1% BSA.
For human cells, a commercially available radioimmunoassay kit (INS-PTH; Nichols Institute, Los Angeles, Calif.) which recognizes intact and N-terminal human PTH was used because GW-1 antibody recognizes human PTH poorly.

C-cell calcium receptor = molecular target: T2, C-cell calcium receptor (Rattus norvegicus, UniProt P48442)
T2 construct: cultured cell lines expressing the C-cell phenotype (e.g., rat medullary thyroid carcinoma cells; rMTC 6-23 cells); host or cells: rMTC 6-23 rat medullary thyroid carcinoma cells
T2 sequence (P48442 20-1079): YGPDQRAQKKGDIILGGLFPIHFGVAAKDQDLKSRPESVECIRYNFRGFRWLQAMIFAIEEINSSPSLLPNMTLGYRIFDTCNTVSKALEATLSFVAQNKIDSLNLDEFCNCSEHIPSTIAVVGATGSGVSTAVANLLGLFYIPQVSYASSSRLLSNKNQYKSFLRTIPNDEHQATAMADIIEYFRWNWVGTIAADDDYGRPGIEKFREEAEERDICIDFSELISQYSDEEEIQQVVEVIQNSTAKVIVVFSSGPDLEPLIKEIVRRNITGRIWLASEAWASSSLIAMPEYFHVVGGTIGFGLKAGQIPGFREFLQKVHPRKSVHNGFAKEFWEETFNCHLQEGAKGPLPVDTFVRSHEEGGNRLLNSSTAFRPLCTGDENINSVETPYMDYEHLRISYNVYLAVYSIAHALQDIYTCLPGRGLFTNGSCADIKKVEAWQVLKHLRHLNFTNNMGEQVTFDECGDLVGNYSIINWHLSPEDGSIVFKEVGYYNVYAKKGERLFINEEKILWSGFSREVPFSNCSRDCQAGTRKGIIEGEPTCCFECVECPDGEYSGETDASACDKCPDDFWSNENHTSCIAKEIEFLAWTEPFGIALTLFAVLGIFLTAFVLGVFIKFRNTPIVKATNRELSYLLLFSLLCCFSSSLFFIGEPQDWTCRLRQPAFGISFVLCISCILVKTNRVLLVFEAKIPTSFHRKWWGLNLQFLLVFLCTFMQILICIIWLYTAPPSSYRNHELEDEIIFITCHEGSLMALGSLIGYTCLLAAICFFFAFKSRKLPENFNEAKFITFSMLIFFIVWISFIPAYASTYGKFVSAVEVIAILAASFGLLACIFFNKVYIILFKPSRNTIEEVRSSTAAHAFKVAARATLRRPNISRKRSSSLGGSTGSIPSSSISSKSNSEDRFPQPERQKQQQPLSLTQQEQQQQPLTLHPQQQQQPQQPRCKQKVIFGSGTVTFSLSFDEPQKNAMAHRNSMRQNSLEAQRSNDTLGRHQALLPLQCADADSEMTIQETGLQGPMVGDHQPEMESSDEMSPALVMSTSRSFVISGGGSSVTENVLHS

`NC[C@@H]1O[C@H](O[C@H]2[C@@H](O)[C@H](O[C@@H]3[C@@H](O)[C@H](N)C[C@H](N)[C@H]3O[C@H]3O[C@H](CN)[C@@H](O)[C@H](O)[C@H]3N)O[C@@H]2CO)[C@H](N)[C@@H](O)[C@@H]1O` [Neomycin B, neomycin B] was tested, and the “change in current in water-injected oocytes” value (calcium receptor; 10 mM, five water-injected oocytes) was “failed to cause any change in the current”, the “mobilization of intracellular Ca2+ in oocytes” value (calcium receptor; hexacyclen 135 μM, neomycin 100 μM, NPS 382 5 mM) was “effective” and the PTH secretion (human parathyroid cells) was “inhibited PTH secretion”. For the same compound, the “effect on basal [Ca2+]i” value (C-cell calcium receptor) was “without effect” and the “EC50 C-CELL” value (C-cell calcium receptor; Table 6, rMTC 6-23 cells) was “inactive”.
